Source: patent publication US9149465B2, “Isoxazolines as inhibitors of fatty acid amide hydrolase” (Infinity Pharmaceuticals, Inc., priority 2009, dated 2015)

Target: T1, human FAAH (Homo sapiens, UniProt O00519)
T1 construct: host or cells: COS-7 cells, transient transfection; 13,000 g membrane fraction solubilised in 1% Triton X-100
T1 sequence (O00519 1-579): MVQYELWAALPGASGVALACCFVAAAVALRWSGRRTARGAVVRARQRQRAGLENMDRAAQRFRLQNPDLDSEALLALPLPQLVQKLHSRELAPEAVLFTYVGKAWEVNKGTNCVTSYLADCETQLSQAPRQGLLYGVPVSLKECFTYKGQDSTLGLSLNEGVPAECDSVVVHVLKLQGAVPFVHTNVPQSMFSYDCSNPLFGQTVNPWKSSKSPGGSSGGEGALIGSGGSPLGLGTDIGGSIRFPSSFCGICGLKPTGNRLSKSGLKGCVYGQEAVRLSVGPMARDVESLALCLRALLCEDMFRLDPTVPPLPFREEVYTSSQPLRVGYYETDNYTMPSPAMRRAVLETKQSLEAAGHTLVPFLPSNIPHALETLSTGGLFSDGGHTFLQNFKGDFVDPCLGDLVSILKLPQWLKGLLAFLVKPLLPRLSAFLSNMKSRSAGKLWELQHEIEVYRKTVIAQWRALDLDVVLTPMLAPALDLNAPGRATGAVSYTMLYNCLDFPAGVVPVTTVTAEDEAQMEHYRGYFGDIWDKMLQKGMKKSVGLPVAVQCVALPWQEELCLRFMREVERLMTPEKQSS
Experiment: Inhibition of human FAAH (AMC arachidonoyl amide fluorescence assay)
Assay type: biochemical
Conditions: inhibitor preincubated 30 minutes at room temperature; 20 μM AMC arachidonoyl amide; 4 hours; read-out: Activity (Ki, inhibitors of human FAAH)
How it was run: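 Solubilized membrane fraction from COS-7 cells transiently expressing human FAAH (0.05 mg/mL final) preincubated 30 min at room temperature with 3-fold serially diluted inhibitor, then reacted 4 h at room temperature with 20 μM AMC arachidonoyl amide. Stopped with α-ketoheterocycle; fluorescence read. Ki from single-site competitive fit, Km fixed at 12 μM.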

Ki [µM]	Structure (SMILES)
≤ 0.1	CS(=O)(=O)c1ccc(OC2=NOC(c3ccc(Oc4ccccc4)cc3)C2)cc1 (single isomer, unassigned) [I-30]
≥ 1	Cc1ccc(OC2=NOC(c3ccc(Oc4ccccc4)cc3)C2)cc1F (single isomer, unassigned) [I-31]
≥ 1	c1ccc(NC2=NOC(c3ccc(Oc4ccccc4)cc3)C2)cc1 (single isomer, unassigned) [I-32]
≥ 1	O=c1ccccn1C1=NOC(c2ccc(Oc3ccccc3)cc2)C1 (single isomer, unassigned) [I-33]
≥ 1	c1ccc(Oc2ccc(C3CC(n4cncn4)=NO3)cc2)cc1 (single isomer, unassigned) [I-34]
≥ 1	c1ccc(Oc2ccc(C3CC(n4cccn4)=NO3)cc2)cc1 (single isomer, unassigned) [I-35]
≥ 1	c1ccc(Oc2ccc(C3CC(Oc4ccncc4)=NO3)cc2)cc1 (single isomer, unassigned) [I-36]
≤ 0.1	c1ccc(Oc2ccc(C3CC(Oc4cccnc4)=NO3)cc2)cc1 (single isomer, unassigned) [I-37]
≤ 0.1	COC(=O)c1cncc(OC2=NOC(c3ccc(Oc4ccccc4)cc3)C2)c1 (single isomer, unassigned) [I-39]
≤ 0.1	Cc1ccc(OC2=NOC(c3ccc(Oc4ccccc4)cc3)C2)cn1 (single isomer, unassigned) [I-40]
≤ 0.1	c1ccc(Oc2ccc(C3CC(Oc4cncnc4)=NO3)cc2)cc1 (single isomer, unassigned) [I-41]
≤ 0.1	c1ccc(Oc2ccc(C3CC(Oc4cnc5ccccc5c4)=NO3)cc2)cc1 (single isomer, unassigned) [I-42]
≤ 0.1	Fc1cncc(OC2=NOC(c3ccc(Oc4ccccc4)cc3)C2)c1 (single isomer, unassigned) [I-43]
0.1 to 1	Cn1ccc2cc(OC3=NOC(c4ccc(Oc5ccccc5)cc4)C3)cnc21 (single isomer, unassigned) [I-44]
≥ 1	COC1=NOC(c2ccc(Oc3ccccc3)cc2)C1 (single isomer, unassigned) [I-45]
0.1 to 1	COC(=O)c1cncc(OC2=NOC(c3ccc(OC(F)(F)F)cc3)C2)c1 (single isomer, unassigned) [I-46]
0.1 to 1	NC(=O)c1cncc(OC2=NOC(c3ccc(Oc4ccccc4)cc3)C2)c1 (single isomer, unassigned) [I-47]
≥ 1	BrC1=NO[C@H](Cc2ccccc2)C1 (single isomer, unassigned) [I-48]
0.1 to 1	BrC1=NOC(CCc2ccccc2)C1 (single isomer, unassigned) [I-49]
0.1 to 1	BrC1=NOC(CCOc2ccccc2)C1 (single isomer, unassigned) [I-50]
≤ 0.1	BrC1=NOC(CCCOc2ccccc2)C1 (single isomer, unassigned) [I-51]
0.1 to 1	BrC1=NOC(COCCc2ccccc2)C1 (single isomer, unassigned) [I-52]
≤ 0.1	CC1C(Br)=NOC1c1ccc(Oc2ccccc2)cc1 (stereo not shown) [I-78]
0.1 to 1	CC1C(Br)=NOC1c1ccc(Oc2ccccc2)cc1 (stereo not shown) [I-82]
≤ 0.1	Nc1ccc(OC2=NOC(c3ccc(Oc4ccccc4)cc3)C2)cn1 (stereo not shown) [I-93]
